Test results published in PubChem BioAssay (NCI).
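Results reflect a 48-hour exposure of cells in 96-well plates to compound at five concentrations. Definition used: TGI = concentration required for complete inhibition of growth.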

What was measured:
Assay in all cases: NCI tumour cell line growth inhibition, 48 h
[1] = tested on: 786-0 renal
[2] = tested on: A549 NSCLC
[3] = tested on: ACHN renal
[4] = tested on: BT-549 breast
[5] = tested on: CCRF-CEM leukemia
[6] = tested on: EKVX NSCLC
[7] = tested on: HCC-2998 colon
[8] = tested on: HCT-15 colon
[9] = tested on: HL-60(TB) leukemia
[10] = tested on: HOP-62 NSCLC
[11] = tested on: HS 578T breast
[12] = tested on: HT29 colon
[13] = tested on: IGROV1 ovarian
[14] = tested on: K-562 leukemia
[15] = tested on: KM12 colon
[16] = tested on: LOX IMVI melanoma
[17] = tested on: M14 melanoma
[18] = tested on: MALME-3M melanoma
[19] = tested on: MCF7 breast
[20] = tested on: MDA-MB-435
[21] = tested on: MOLT-4 leukemia
[22] = tested on: NCI-H226 lung
[23] = tested on: NCI-H23 lung
[24] = tested on: NCI-H460 lung
[25] = tested on: NCI-H522 lung
[26] = tested on: NCI/ADR-RES ovarian
[27] = tested on: OVCAR-3 ovarian
[28] = tested on: OVCAR-4 ovarian
[29] = tested on: OVCAR-5 ovarian
[30] = tested on: OVCAR-8 ovarian
[31] = tested on: PC-3 prostate
[32] = tested on: RPMI-8226 leukemia
[33] = tested on: RXF 393 renal
[34] = tested on: SF-268 CNS
[35] = tested on: SF-295 CNS
[36] = tested on: SF-539 CNS
[37] = tested on: SK-MEL-2 melanoma
[38] = tested on: SK-MEL-28 melanoma
[39] = tested on: SK-MEL-5 melanoma
[40] = tested on: SK-OV-3 ovarian
[41] = tested on: SN12C renal
[42] = tested on: SNB-19 CNS
[43] = tested on: SNB-75 CNS
[44] = tested on: SR leukemia
[45] = tested on: SW-620 colon
[46] = tested on: TK-10 renal
[47] = tested on: U251 CNS
[48] = tested on: UACC-257 melanoma
[49] = tested on: UACC-62 melanoma
[50] = tested on: UO-31 renal

Measured: TGI

OCCCC(O)(c1ccccc1)c1ccccc1
> 100 µM: all assays above
